Reference: the supplement of paper PMC10307832

Assays:
Test in all cases: relative viability (nuclei count vs DMSO), 5 days (fraction); higher = more cells survive
[1] = compound: c1ccc2c(CCNc3ccc(Nc4ccncc4)cc3)c[nH]c2c1 [Serdemetan] + Cc1cc(Nc2cc(N3CCN(C)CC3)nc(Sc3ccc(NC(=O)C4CC4)cc3)n2)n[nH]1 [Tozasertib] (partner 0.1 µM)
Method in brief: (§1)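 Lung cancer cell lines were seeded in 1536-well plates and dosed by pin tool the next day, with either a single drug or a fixed anchor-drug dose combined with five library-drug doses (not always all listed) spaced in √10 steps. Five days later, one step fixed the cells and stained their nuclei (final 0.05% Triton X-100, 1% formaldehyde, 1 ug/ml Hoechst), and nuclei were counted on 4× images. Relative viability is the nuclei count in treated wells divided by the count in vehicle wells, and each value is the median of duplicate plates.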

[2] = compound: c1ccc2c(CCNc3ccc(Nc4ccncc4)cc3)c[nH]c2c1 [Serdemetan] + CC(=O)c1c(C)c2cnc(Nc3ccc(N4CCNCC4)cn3)nc2n(C2CCCC2)c1=O [Palbociclib] (partner 0.5 µM)
Method in brief: as §1

[3] = compound: c1ccc2c(CCNc3ccc(Nc4ccncc4)cc3)c[nH]c2c1 [Serdemetan] + N=C(N)NC(=N)NCCc1ccccc1 [Phenformin] (partner 250 µM)
Method in brief: as §1

[4] = compound: c1ccc2c(CCNc3ccc(Nc4ccncc4)cc3)c[nH]c2c1 [Serdemetan] + Cc1nc(NC(=O)N2CCC[C@H]2C(N)=O)sc1-c1ccnc(C(C)(C)C(F)(F)F)c1 [Alpelisib] (partner 2 µM)
Method in brief: as §1

Cell Line | relative viability ([1]; first compound 0.04 µM) | relative viability ([1]; first compound 0.1265 µM) | relative viability ([1]; first compound 0.4 µM) | relative viability ([1]; first compound 1.265 µM) | relative viability ([1]; first compound 4 µM) | relative viability ([2]; first compound 0.04 µM) | relative viability ([2]; first compound 0.1265 µM) | relative viability ([2]; first compound 0.4 µM) | relative viability ([2]; first compound 1.265 µM) | relative viability ([2]; first compound 4 µM) | relative viability ([3]; first compound 0.04 µM) | relative viability ([3]; first compound 0.1265 µM) | relative viability ([3]; first compound 0.4 µM) | relative viability ([3]; first compound 1.265 µM) | relative viability ([3]; first compound 4 µM) | relative viability ([4]; first compound 0.04 µM) | relative viability ([4]; first compound 0.1265 µM) | relative viability ([4]; first compound 0.4 µM) | relative viability ([4]; first compound 1.265 µM) | relative viability ([4]; first compound 4 µM)
NCI-H2126 | 0.867 | 0.874 | 0.786 | 0.832 | 0.79 | 0.356 | 0.379 | 0.349 | 0.329 | 0.354 | 0.555 | 0.557 | 0.535 | 0.512 | 0.527 | 0.721 | 0.753 | 0.741 | 0.575 | 0.762
NCI-H2170 | 0.662 | 0.732 | 0.7 | 0.276 | 0.685 | 0.362 | 0.428 | 0.411 | 0.301 | 0.382 | 0.374 | 0.354 | 0.383 | 0.35 | 0.336 | 0.776 | 0.854 | 0.833 | 0.721 | 0.811
NCI-H2228 | 0.267 | 0.246 | 0.371 | 0.128 | 0.162 | 0.644 | 0.61 | 0.511 | 0.115 | 0.233 | 0.38 | 0.269 | 0.362 | 0.238 | 0.21 | 0.762 | 0.554 | 0.46 | 0.307 | 0.294
NCI-H2347 | 0.623 | 0.602 | 0.572 | 0.588 | 0.399 | 0.448 | 0.367 | 0.403 | 0.358 | 0.406 | 0.52 | 0.382 | 0.366 | 0.3 | 0.289 | 0.936 | 1.02 | 1.01 | 0.866 | 0.703
NCI-H2405 | 0.7 | 0.704 | 0.734 | 0.659 | 0.662 | 0.479 | 0.515 | 0.549 | 0.466 | 0.52 | 0.317 | 0.406 | 0.366 | 0.344 | 0.381 | 0.881 | 0.918 | 0.826 | 0.772 | 0.543
NCI-H3122 | 0.369 | 0.431 | 0.382 | 0.406 | 0.337 | 0.192 | 0.227 | 0.224 | 0.205 | 0.214 | 0.302 | 0.363 | 0.352 | 0.236 | 0.311 | 0.809 | 0.715 | 0.779 | – | 0.771
PC-3 [JPC-3] | 0.841 | 0.795 | 0.784 | 0.929 | 0.87 | 0.562 | 0.492 | 0.528 | 0.467 | 0.519 | 0.475 | 0.494 | 0.486 | 0.482 | 0.532 | 1.04 | 0.979 | – | 1.01 | 1.05
PC-14 | 0.522 | 0.595 | – | 0.548 | 0.428 | 0.546 | 0.546 | – | 0.467 | 0.346 | 0.59 | 0.537 | – | 0.531 | 0.549 | 0.954 | 0.93 | 0.784 | 0.852 | 0.825
RERF-LC-KJ | 0.49 | 0.441 | 0.479 | 0.455 | 0.469 | 1.06 | 0.962 | 0.975 | 1.04 | 0.824 | 0.349 | 0.507 | 0.389 | 0.404 | 0.399 | 0.804 | 0.832 | 0.777 | 0.801 | 0.643
SK-LU-1 | 0.378 | 0.298 | 0.337 | – | 0.294 | 0.37 | 0.393 | 0.365 | 0.319 | 0.346 | 0.484 | 0.573 | 0.538 | – | 0.343 | 1.14 | 1.07 | 0.944 | 0.758 | 0.669
SK-MES-1 | 0.871 | 0.859 | 0.851 | 0.747 | 0.865 | 0.271 | 0.309 | 0.285 | 0.302 | 0.325 | 0.634 | 0.646 | 0.605 | 0.576 | 0.456 | 0.836 | 0.792 | 0.74 | 0.834 | 0.526
SW 1573 | 0.168 | 0.15 | 0.218 | 0.248 | 0.18 | 0.446 | 0.362 | 0.444 | 0.343 | 0.234 | 0.36 | 0.334 | 0.289 | 0.211 | 0.245 | 0.7 | 0.791 | 0.722 | 0.463 | 0.385
UMC-11 | 0.224 | 0.199 | 0.208 | – | 0.233 | 0.333 | 0.343 | 0.381 | 0.344 | 0.281 | 0.312 | 0.31 | – | – | 0.321 | 0.914 | 0.988 | 1.01 | 0.751 | 0.769
